According to publication PMC2577671, “Evaluation of Dimebon in cellular model of Huntington's disease” (Molecular Neurodegeneration, 2008):

Assays:
CYP450, 1A2 = target: T1, CYP450, 1A2 (Homo sapiens, UniProt P05177); assay: in vitro; parameters: MDS Pharma Lead Profiling + CYP450 screen, enzyme assays, per cent inhibition, duplicate
T1 construct: gene CYP1A2
Experimental: (§1) The activity of Dimebon against selected set of biochemical targets was performed by MDS Pharma Services . The Dimebon was provided to MDS Pharma as dry powder, dissolved in DMSO and tested in 10 μM concentrations. The standard Lead Profiling + CYP450 screen was performed according to MDS Pharma specifications with additional custom-chosen targets added to the screen as indicated. To further understand potential mechanisms responsible for clinical effects of Dimebon, we evaluated Dimebon against a set of selected biochemical targets. Dimebon evaluation was performed by MDS Pharma Services . The standard Lead Profiling + CYP450 screen was performed with additional custom-selected targets added to the screen. The results of the screen obtained at 10 μM of Dimebon are provided as Additional File 3. […] Low affinity (50–60% inhibition) interactions were also observed for CYP450, 2C19 receptor, voltage-gated L-type Ca^2+ channel, Dopamine D4.2 receptor, and Serotonin 5-HT1 receptor. […] Supplementary file 1750-1326-3-15-S3.pdf: Additional file 3 The results of Dimebon screening against a selected set of biochemical targets. The complete results obtained by MDS Pharma with a selected list of biochemical targets using 10 μM of Dimebon as a probe. The Cat numbers refer to the MDS Pharma Services assay specification. The receptors and species are listed. Dimebon was tested at 10 μM concentratio in duplicate. The % inhibition by Dimebon is shown numerically and graphically for each receptor. Significant targets (defined as % inhibition > 50%) are highlighted in yellow. Click here for file

CYP450, 3A4 = target: T2, CYP450, 3A4 (Homo sapiens, UniProt P08684); assay: in vitro; parameters: MDS Pharma Lead Profiling + CYP450 screen, enzyme assays, per cent inhibition, duplicate
T2 construct: gene CYP3A4
Experimental: as §1

CYP450, 2C9 = target: T3, CYP450, 2C9 (Homo sapiens, UniProt P11712); assay: in vitro; parameters: MDS Pharma Lead Profiling + CYP450 screen, enzyme assays, per cent inhibition, duplicate
T3 construct: gene CYP2C9
Experimental: as §1

CYP450, 2C19 = target: T4, CYP450, 2C19 (Homo sapiens, UniProt P33261); assay: in vitro; parameters: MDS Pharma Lead Profiling + CYP450 screen, enzyme assays, per cent inhibition, duplicate
T4 construct: gene CYP2C19
Experimental: as §1

CYP450, 2D6 = target: T5, CYP450, 2D6 (Homo sapiens, UniProt P10635); assay: in vitro; parameters: MDS Pharma Lead Profiling + CYP450 screen, enzyme assays, per cent inhibition, duplicate
T5 construct: gene CYP2D6
Experimental: as §1

[1] = target: T6, Serotonin 5-HT5A receptor (Homo sapiens, UniProt P47898); assay: MDS Pharma Services binding screen at […]
T6 construct: gene HTR5A

Dopamine D2S receptor = target: T7, Dopamine D2S receptor (Homo sapiens, UniProt P14416); assay: MDS Pharma Services binding screen at […]
T7 construct: gene DRD2; D2S

[2] = target: T8, Nicotinic Acetylcholine alpha1, Bungarotoxin (Homo sapiens, UniProt P02708); assay: biochemical; parameters: MDS Pharma Lead Profiling screen, binding assays, per cent inhibition, duplicate; conditions: read-out: % INHIBITION
T8 construct: gene CHRNA1

[3] = target: T9, Serotonin 5-HT2c receptor (Homo sapiens, UniProt P28335); assay: MDS Pharma Services binding screen at […]
T9 construct: gene HTR2C

α1D-Adrenergic receptor = target: T10, α1D-Adrenergic receptor (Homo sapiens, UniProt P25100); assay: MDS Pharma Services binding screen at […]
T10 construct: gene ADRA1D

Monoamine Oxidase MAO-A = target: T11, Monoamine Oxidase MAO-A (Homo sapiens, UniProt P21397); assay: biochemical; parameters: MDS Pharma Lead Profiling + CYP450 screen, enzyme assays, per cent inhibition, duplicate
T11 construct: gene MAOA
Experimental: as §1

Monoamine Oxidase MAO-B = target: T12, Monoamine Oxidase MAO-B (Homo sapiens, UniProt P27338); assay: biochemical; parameters: MDS Pharma Lead Profiling + CYP450 screen, enzyme assays, per cent inhibition, duplicate
T12 construct: gene MAOB
Experimental: as §1

[4] = target: Peptidase, BACE1 (beta-Secretase) (Homo sapiens, UniProt P56817); assay: biochemical; parameters: MDS Pharma Lead Profiling + CYP450 screen, enzyme assays, per cent inhibition, duplicate
Experimental: as §1

Potassium Channel hERG = target: T13, Potassium Channel hERG (Homo sapiens, UniProt Q12809); assay: in vitro; parameters: MDS Pharma Lead Profiling screen, binding assays, per cent inhibition, duplicate
T13 construct: gene KCNH2
Experimental: as §1, with “Dimebon was tested at 10 μM concentratio in duplicate. The % inhibition by Dimebon is shown numerically and graphically for each receptor. Significant targets (defined as % inhibition > 50%) are highlighted in yellow. Click here for file” left out

Serotonin 5-HT6 receptor [5] = target: T14, Serotonin 5-HT6 receptor (Homo sapiens, UniProt P50406); assay: MDS Pharma Services binding screen at […]
T14 construct: gene HTR6

Serotonin 5-HT1A = target: T15, Serotonin 5-HT1A (Homo sapiens, UniProt P08908); assay: biochemical; parameters: MDS Pharma Lead Profiling screen, binding assays, per cent inhibition, duplicate
T15 construct: gene HTR1A
Experimental: as §1

Neuropeptide Y Y2 = target: T16, Neuropeptide Y Y2 (Homo sapiens, UniProt P49146); assay: biochemical; parameters: MDS Pharma Lead Profiling screen, binding assays, per cent inhibition, duplicate
T16 construct: gene NPY2R
Experimental: as §1

Histamine H3 = target: T17, Histamine H3 (Homo sapiens, UniProt Q9Y5N1); assay: biochemical; parameters: MDS Pharma Lead Profiling screen, binding assays, per cent inhibition, duplicate
T17 construct: gene HRH3
Experimental: as §1

Neuropeptide Y Y1 = target: T18, Neuropeptide Y Y1 (Homo sapiens, UniProt P25929); assay: biochemical; parameters: MDS Pharma Lead Profiling screen, binding assays, per cent inhibition, duplicate
T18 construct: gene NPY1R
Experimental: as §1

α1B-Adrenergic receptor = target: T19, α1B-Adrenergic receptor (Rattus norvegicus, UniProt P15823); assay: biochemical; parameters: MDS Pharma Lead Profiling screen, binding assays, per cent inhibition, duplicate
T19 construct: gene Adra1b
Experimental: as §1

Serotonin 5-HT6 receptor [6] = target: T14, Serotonin 5-HT6 receptor; assay: biochemical; parameters: MDS Pharma Lead Profiling screen, binding assays, per cent inhibition, duplicate
Experimental: as §1

T14 sequence (P50406 whole entry): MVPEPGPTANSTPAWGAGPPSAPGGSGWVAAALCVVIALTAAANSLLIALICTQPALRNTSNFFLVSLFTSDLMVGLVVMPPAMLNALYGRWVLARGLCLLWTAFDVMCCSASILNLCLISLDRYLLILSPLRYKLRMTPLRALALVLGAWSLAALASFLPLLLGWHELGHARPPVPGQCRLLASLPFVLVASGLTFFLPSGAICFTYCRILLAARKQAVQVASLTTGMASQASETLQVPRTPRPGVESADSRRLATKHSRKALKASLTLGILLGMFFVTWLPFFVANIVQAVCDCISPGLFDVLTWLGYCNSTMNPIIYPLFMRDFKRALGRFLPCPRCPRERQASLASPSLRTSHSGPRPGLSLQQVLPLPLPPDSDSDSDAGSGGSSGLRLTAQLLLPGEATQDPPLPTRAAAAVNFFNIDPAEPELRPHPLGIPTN
T17 sequence (Q9Y5N1 whole entry): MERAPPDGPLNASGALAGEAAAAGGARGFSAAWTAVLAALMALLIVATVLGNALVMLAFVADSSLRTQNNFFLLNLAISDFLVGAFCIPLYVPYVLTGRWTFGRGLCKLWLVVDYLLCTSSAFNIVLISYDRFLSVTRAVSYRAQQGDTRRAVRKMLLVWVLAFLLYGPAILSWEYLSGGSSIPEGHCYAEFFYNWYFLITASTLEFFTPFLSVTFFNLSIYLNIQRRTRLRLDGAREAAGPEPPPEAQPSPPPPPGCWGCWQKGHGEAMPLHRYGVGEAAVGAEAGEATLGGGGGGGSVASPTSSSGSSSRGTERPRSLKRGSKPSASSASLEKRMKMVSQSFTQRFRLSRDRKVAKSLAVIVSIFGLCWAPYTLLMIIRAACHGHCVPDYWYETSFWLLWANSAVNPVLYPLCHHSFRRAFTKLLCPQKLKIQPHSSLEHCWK
T4 sequence (P33261 whole entry): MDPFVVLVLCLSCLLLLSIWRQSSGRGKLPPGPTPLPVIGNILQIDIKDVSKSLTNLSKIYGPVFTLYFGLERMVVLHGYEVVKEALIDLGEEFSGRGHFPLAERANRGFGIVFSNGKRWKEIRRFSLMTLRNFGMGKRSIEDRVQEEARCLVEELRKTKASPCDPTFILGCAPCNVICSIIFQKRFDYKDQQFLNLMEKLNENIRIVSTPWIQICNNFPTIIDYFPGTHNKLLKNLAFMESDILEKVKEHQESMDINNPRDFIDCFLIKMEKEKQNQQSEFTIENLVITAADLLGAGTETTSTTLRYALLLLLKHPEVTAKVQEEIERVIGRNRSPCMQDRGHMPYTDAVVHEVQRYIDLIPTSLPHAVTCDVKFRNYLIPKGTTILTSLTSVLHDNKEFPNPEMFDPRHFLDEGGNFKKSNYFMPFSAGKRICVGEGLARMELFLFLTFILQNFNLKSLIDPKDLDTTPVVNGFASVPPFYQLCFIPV
Chain of Peptidase, BACE1 (beta-Secretase) (P56817 whole entry): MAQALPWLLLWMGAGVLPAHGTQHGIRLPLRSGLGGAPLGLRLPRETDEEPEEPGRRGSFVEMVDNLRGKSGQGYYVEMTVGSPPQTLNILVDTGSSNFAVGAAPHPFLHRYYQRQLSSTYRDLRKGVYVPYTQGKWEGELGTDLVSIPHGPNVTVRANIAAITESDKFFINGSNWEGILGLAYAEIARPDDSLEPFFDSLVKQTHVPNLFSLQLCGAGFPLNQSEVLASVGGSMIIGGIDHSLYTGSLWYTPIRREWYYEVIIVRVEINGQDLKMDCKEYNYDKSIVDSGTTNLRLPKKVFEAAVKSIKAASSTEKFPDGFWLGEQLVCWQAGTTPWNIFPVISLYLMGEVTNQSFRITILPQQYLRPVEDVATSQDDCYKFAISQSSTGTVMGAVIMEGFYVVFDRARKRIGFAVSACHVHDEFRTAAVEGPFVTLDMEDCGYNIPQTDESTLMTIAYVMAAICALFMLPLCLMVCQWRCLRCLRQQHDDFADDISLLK
T18 sequence (P25929 whole entry): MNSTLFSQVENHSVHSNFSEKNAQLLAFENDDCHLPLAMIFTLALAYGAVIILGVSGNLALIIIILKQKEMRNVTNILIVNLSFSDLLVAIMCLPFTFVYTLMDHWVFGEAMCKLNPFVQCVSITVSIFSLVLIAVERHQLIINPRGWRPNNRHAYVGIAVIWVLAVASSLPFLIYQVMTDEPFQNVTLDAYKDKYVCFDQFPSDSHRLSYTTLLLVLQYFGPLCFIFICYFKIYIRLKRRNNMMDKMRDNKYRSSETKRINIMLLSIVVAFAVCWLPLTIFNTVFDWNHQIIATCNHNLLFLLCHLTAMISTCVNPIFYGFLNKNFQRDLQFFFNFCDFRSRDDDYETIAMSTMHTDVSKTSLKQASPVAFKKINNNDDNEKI
T3 sequence (P11712 whole entry): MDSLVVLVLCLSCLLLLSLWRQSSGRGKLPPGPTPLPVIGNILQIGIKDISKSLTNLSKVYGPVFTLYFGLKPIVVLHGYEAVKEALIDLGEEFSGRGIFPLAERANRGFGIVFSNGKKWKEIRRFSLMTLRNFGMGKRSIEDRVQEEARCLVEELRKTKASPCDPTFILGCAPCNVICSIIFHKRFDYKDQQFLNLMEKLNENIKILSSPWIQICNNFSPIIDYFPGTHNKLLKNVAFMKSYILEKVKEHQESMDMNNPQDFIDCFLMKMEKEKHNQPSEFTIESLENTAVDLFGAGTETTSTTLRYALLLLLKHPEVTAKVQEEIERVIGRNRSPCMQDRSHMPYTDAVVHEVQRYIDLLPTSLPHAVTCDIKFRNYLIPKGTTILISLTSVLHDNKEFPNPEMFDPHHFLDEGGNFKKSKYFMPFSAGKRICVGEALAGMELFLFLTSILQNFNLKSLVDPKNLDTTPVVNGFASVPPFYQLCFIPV
T15 sequence (P08908 whole entry): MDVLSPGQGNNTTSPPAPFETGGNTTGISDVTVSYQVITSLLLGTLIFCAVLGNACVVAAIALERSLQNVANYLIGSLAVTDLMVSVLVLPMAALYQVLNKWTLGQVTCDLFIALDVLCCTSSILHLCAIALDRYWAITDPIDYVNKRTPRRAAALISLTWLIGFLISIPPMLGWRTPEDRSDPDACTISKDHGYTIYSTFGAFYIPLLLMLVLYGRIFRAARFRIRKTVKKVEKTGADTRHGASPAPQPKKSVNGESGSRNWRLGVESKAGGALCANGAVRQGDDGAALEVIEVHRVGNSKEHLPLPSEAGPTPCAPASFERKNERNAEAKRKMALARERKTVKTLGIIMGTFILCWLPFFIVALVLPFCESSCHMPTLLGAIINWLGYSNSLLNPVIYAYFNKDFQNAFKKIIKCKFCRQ
T7 sequence (P14416 other isoform, or with tags, fused parts or gaps): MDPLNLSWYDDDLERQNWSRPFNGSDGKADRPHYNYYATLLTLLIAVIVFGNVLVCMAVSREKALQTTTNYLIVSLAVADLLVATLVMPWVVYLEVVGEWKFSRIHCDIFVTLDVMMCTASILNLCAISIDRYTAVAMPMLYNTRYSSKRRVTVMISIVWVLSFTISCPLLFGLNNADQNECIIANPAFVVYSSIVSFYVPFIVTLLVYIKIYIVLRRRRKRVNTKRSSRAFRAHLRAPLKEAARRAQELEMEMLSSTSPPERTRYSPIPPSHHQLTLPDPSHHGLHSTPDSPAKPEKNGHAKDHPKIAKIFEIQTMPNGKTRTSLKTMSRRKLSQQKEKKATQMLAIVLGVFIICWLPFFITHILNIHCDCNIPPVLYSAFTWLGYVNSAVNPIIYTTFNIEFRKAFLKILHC
T5 sequence (P10635 whole entry): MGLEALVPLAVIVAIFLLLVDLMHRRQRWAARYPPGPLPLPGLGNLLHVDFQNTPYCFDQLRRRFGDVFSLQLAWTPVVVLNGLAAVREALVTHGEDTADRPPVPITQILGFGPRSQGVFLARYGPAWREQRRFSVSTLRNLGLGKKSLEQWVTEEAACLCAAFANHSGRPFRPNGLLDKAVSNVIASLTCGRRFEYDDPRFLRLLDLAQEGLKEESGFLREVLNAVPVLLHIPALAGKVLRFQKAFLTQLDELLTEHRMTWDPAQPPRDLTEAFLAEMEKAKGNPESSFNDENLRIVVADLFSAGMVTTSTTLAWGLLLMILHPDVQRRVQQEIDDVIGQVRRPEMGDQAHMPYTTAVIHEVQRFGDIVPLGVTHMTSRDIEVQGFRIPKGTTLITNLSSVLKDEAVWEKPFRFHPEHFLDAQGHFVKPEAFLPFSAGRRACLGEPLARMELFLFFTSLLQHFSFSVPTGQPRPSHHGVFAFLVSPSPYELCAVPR
T6 sequence (P47898 whole entry): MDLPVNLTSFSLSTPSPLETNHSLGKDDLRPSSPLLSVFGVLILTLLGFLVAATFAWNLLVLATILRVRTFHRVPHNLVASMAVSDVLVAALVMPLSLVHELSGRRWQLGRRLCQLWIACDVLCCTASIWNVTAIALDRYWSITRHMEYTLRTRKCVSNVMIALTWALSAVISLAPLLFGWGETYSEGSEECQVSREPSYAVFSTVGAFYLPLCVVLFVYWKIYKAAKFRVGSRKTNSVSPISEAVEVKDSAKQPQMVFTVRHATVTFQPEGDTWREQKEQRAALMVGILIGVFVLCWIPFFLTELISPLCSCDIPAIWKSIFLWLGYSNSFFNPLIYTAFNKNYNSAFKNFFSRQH
T9 sequence (P28335 33-458): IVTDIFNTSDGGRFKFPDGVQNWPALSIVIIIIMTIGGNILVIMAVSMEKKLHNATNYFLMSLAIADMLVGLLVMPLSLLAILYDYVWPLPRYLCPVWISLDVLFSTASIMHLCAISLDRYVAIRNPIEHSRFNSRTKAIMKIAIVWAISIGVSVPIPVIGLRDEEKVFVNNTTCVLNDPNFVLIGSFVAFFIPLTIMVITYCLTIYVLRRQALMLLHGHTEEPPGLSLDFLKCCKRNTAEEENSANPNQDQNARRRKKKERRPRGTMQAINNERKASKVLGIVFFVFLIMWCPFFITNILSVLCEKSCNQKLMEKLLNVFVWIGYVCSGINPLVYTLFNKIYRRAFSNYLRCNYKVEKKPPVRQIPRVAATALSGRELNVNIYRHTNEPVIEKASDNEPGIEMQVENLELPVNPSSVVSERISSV

Question: Which results are given for `Cc1ccc2c(c1)c1c(n2CCc2ccc(C)nc2)CCN(C)C1` [Dimebon, 2,3,4,5-Tetrahydro-2,8-dimethyl-5-(2-(6-methyl-3-pyridyl)ethyl)-1H-pyrido(4,3-b)indole]?
Answer: inhibition at 10 µM (CYP450, 1A2): 5%; inhibition at 10 µM (CYP450, 3A4): 22%; inhibition at 10 µM (CYP450, 2C9): 2%; inhibition at 10 µM (CYP450, 2C19): 55%; inhibition at 10 µM (CYP450, 2D6): 16%; inhibition at 10 µM [1]: > 90%; inhibition at 10 µM (Dopamine D2S receptor): 70 to 80%; inhibition at 10 µM [2]: 1%; inhibition at 10 µM [3]: > 90%; inhibition at 10 µM (α1D-Adrenergic receptor): > 90%; inhibition at 10 µM (Monoamine Oxidase MAO-A): 6%; inhibition at 10 µM (Monoamine Oxidase MAO-B): 5%; inhibition at 10 µM [4]: -9%; inhibition at 10 µM (Potassium Channel hERG): 45%; inhibition at 10 µM (Serotonin 5-HT6 receptor [5]): > 90%; inhibition at 10 µM (Serotonin 5-HT1A): 22%; inhibition at 10 µM (Neuropeptide Y Y2): -5%; inhibition at 10 µM (Histamine H3): -4%; inhibition at 10 µM (Neuropeptide Y Y1): 4%; inhibition at 10 µM (α1B-Adrenergic receptor): 100%; inhibition at 10 µM (Serotonin 5-HT6 receptor [6]): 101%
